Source: ChEMBL document CHEMBL1130260, “A strategy for the incorporation of water molecules present in a ligand binding site into a three-dimensional quantitative structure--activity relationship analysis” (J Med Chem, 1997)

target: Glycogen phosphorylase, muscle form (Oryctolagus cuniculus) (UniProt P00489); conditions: Muscle tissue
Sequence (P00489 whole entry, looked up): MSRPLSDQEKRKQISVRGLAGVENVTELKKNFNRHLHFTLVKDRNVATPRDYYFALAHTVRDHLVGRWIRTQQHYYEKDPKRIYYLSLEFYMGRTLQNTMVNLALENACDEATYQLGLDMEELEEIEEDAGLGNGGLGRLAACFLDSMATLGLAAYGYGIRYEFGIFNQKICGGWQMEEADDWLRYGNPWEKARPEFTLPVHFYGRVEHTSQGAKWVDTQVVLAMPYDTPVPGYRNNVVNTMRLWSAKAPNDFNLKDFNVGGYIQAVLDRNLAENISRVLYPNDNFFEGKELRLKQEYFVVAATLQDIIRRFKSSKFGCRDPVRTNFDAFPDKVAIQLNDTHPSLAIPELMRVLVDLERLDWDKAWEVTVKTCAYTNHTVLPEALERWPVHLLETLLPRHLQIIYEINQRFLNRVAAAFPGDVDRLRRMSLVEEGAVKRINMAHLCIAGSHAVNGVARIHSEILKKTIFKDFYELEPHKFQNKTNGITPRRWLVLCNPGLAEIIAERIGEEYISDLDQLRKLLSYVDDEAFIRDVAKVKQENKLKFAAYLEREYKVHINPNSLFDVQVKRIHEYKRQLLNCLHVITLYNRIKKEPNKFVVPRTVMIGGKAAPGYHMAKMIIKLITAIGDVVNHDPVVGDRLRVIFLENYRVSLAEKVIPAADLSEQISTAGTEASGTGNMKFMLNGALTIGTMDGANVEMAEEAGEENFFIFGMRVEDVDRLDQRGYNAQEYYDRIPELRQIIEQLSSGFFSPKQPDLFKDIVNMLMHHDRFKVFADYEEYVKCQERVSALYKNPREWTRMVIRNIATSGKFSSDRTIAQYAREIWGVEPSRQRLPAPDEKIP

Question: Which pKi does the source give for CC(=O)NCC(=O)N[C@H]1O[C@H](CO)[C@@H](O)[C@H](O)[C@H]1O here?
Answer: Its pKi is 3.

Question: Which pKi does the source give for NCC1OC(CO)C(O)C(O)C1O (stereo in doubt; 5) here?
Answer: The pKi was 1.46.

Question: For N#CC[C@@H]1O[C@H](CO)[C@@H](O)[C@H](O)[C@H]1O, which pKi is on record?
Answer: The pKi was 2.05.

Question: O=C(NCCO)[C@H]1O[C@@H](CO)[C@@H](O)[C@H](O)[C@@H]1O was tested. Which pKi did it give?
Answer: The pKi was 2.59.

Question: COC(=O)N[C@]1(C(N)=O)O[C@H](CO)[C@@H](O)[C@H](O)[C@H]1O (stereo in doubt; 49) was tested. Which pKi did it give?
Answer: The pKi was 3.5.

Question: NCC(=O)N[C@H]1O[C@@H](CO)[C@@H](O)[C@H](O)[C@@H]1O was tested. Which pKi did it give?
Answer: Its pKi is 3.43.

Question: With O=C(N[C@H]1O[C@H](CO)[C@@H](O)[C@H](O)[C@H]1O)c1ccccc1 as the molecule, how does the pKi read?
Answer: The pKi was 4.09.

Question: Which pKi does the source give for O=C(CBr)N[C@H]1O[C@@H](CO)[C@@H](O)[C@H](O)[C@@H]1O here?
Answer: Its pKi is 4.36.

Question: With OC[C@@H]1O[C@@](O)(CO)[C@@H](O)[C@@H](O)[C@@H]1O as the molecule, how does the pKi read?
Answer: Its pKi is 1.8.

Question: For NC(=O)CS[C@H]1O[C@H](CO)[C@@H](O)[C@H](O)[C@H]1O, which pKi is on record?
Answer: The pKi was 1.68.

Question: For OCC1OC(S)C(O)C(O)C1O (stereo not drawn), which pKi is on record?
Answer: Its pKi is 3.

Question: How did the pKi turn out when CCCC(=O)N[C@H]1O[C@H](CO)[C@@H](O)[C@H](O)[C@H]1O was run?
Answer: The pKi was 4.03.

Question: CC(=O)NN1C(=O)N[C@@]2(O[C@@H](CO)[C@@H](O)[C@H](O)[C@@H]2O)C1=O was tested. Which pKi did it give?
Answer: Its pKi is 3.26.

Question: NNC(=O)[C@@H]1O[C@H](CO)[C@@H](O)[C@H](O)[C@H]1O (stereo in doubt; 14) was tested. Which pKi did it give?
Answer: Its pKi is 3.4.

Question: How did the pKi turn out when [N-]=[N+]=NC[C@H]1O[C@H](CO)[C@@H](O)[C@H](O)[C@H]1O was run?
Answer: The pKi was 1.65.

Question: For N#CC[C@]1(O)O[C@H](CO)[C@@H](O)[C@H](O)[C@H]1O, which pKi is on record?
Answer: The pKi was 2.12.

Question: For O=C1CNC(=O)[C@@]2(N1)O[C@@H](CO)[C@@H](O)[C@H](O)[C@@H]2O, which pKi is on record?
Answer: Its pKi is 4.22.

Question: For COC(=O)N[C@]1(C(N)=O)O[C@H](CO)[C@@H](O)[C@H](O)[C@H]1O (stereo in doubt; 35), which pKi is on record?
Answer: Its pKi is 4.8.

Question: Which pKi does the source give for NC(=O)C1OC(CO)C(O)C(O)C1O (stereo in doubt; 2) here?
Answer: The pKi was 3.43.

Question: For O=C(Nc1ccccc1)C1OC(CO)C(O)C(O)C1O (stereo not drawn), which pKi is on record?
Answer: The pKi was 2.27.

Question: OCC1OC(CO)C(O)C(O)C1O (stereo not drawn) was tested. Which pKi did it give?
Answer: The pKi was 2.82.

Question: How did the pKi turn out when CS(=O)(=O)OCC1OC(CO)C(O)C(O)C1O (stereo not drawn) was run?
Answer: The pKi was 2.32.

Question: For O=C(CS[C@H]1O[C@H](CO)[C@@H](O)[C@H](O)[C@H]1O)Nc1ccc(F)cc1F, which pKi is on record?
Answer: The pKi was 1.72.

Question: How did the pKi turn out when OC[C@@H]1O[C@H](n2cc(O[C@@H]3O[C@H](CO)[C@@H](O)[C@H](O)[C@H]3O)c3ccccc32)[C@@H](O)[C@@H](O)[C@@H]1O was run?
Answer: Its pKi is 2.59.

Question: How did the pKi turn out when COC(=O)C1OC(CO)C(O)C(O)C1O (stereo in doubt; 18) was run?
Answer: The pKi was 2.55.

Question: How did the pKi turn out when COC(=O)N[C@@H]1O[C@H](CO)[C@@H](O)[C@H](O)[C@H]1O was run?
Answer: The pKi was 4.07.

Question: With NCC1OC(CO)C(O)C(O)C1O (stereo in doubt; 19) as the molecule, how does the pKi read?
Answer: Its pKi is 1.78.

Question: For O=C(CS[C@H]1O[C@H](CO)[C@@H](O)[C@H](O)[C@H]1O)Nc1ccccc1, which pKi is on record?
Answer: Its pKi is 2.44.

Question: For NC(=O)C1OC(CO)C(O)C(O)C1O (stereo in doubt; 9), which pKi is on record?
Answer: Its pKi is 3.36.

Question: For COC(=O)C1OC(CO)C(O)C(O)C1O (stereo in doubt; 4), which pKi is on record?
Answer: The pKi was 1.62.

Question: Which pKi does the source give for NNC(=O)[C@@H]1O[C@H](CO)[C@@H](O)[C@H](O)[C@H]1O (stereo in doubt; 3) here?
Answer: The pKi was 2.52.

Question: For OC[C@H]1O[C@H](OCC2O[C@@H](O)[C@H](O)[C@@H](O)[C@@H]2O)[C@H](O)[C@@H](O)[C@H]1O (stereo partly drawn), which pKi is on record?
Answer: Its pKi is 1.79.

Question: How did the pKi turn out when [N-]=[N+]=NC[C@@H]1O[C@H](CO)[C@@H](O)[C@H](O)[C@H]1O was run?
Answer: Its pKi is 1.82.

Question: With O=C(NCC(F)(F)F)[C@H]1O[C@@H](CO)[C@@H](O)[C@H](O)[C@@H]1O as the molecule, how does the pKi read?
Answer: Its pKi is 2.09.

Question: How did the pKi turn out when O=C(CCl)N[C@H]1O[C@H](CO)[C@@H](O)[C@H](O)[C@H]1O was run?
Answer: The pKi was 4.35.

Question: How did the pKi turn out when O=C1N[C@@]2(O[C@@H](CO)[C@@H](O)[C@H](O)[C@@H]2O)C(=O)N1O was run?
Answer: Its pKi is 4.41.

Question: How did the pKi turn out when O=C(Nc1ccc(O)cc1)[C@H]1O[C@@H](O)[C@@H](O)[C@H](O)[C@@H]1O was run?
Answer: The pKi was 2.36.

Question: With CCC(=O)N[C@H]1O[C@H](CO)[C@@H](O)[C@H](O)[C@H]1O as the molecule, how does the pKi read?
Answer: Its pKi is 4.41.

Question: How did the pKi turn out when CS(=O)(=O)OC[C@]1(O)O[C@@H](CO)[C@@H](O)[C@H](O)[C@@H]1O was run?
Answer: Its pKi is 2.43.

Question: For OC[C@@H]1O[C@H](OC[C@H]2S[C@H](O)[C@H](O)[C@@H](O)[C@@H]2O)[C@@H](O)[C@@H](O)[C@@H]1O, which pKi is on record?
Answer: Its pKi is 2.7.

Question: How did the pKi turn out when NC(=O)N[C@H]1O[C@H](CO)[C@@H](O)[C@H](O)[C@H]1O was run?
Answer: The pKi was 3.85.

Question: For CNC(=O)C1OC(CO)C(O)C(O)C1O (stereo not drawn), which pKi is on record?
Answer: The pKi was 3.8.

Question: For O=C(NC1CC1)[C@H]1O[C@@H](CO)[C@@H](O)[C@H](O)[C@@H]1O, which pKi is on record?
Answer: Its pKi is 2.89.

Question: With NCCC1OC(CO)C(O)C(O)C1O (stereo not drawn) as the molecule, how does the pKi read?
Answer: Its pKi is 2.35.

Question: For CC(=O)N[C@H]1O[C@H](CO)[C@@H](O)[C@H](O)[C@H]1O, which pKi is on record?
Answer: Its pKi is 4.5.

Question: [N-]=[N+]=NC[C@@]1(O)O[C@@H](CO)[C@@H](O)[C@H](O)[C@@H]1O was tested. Which pKi did it give?
Answer: Its pKi is 2.13.

Question: For CNNC(=O)[C@H]1O[C@H](CO)[C@@H](O)[C@H](O)[C@H]1O, which pKi is on record?
Answer: Its pKi is 2.75.

Question: For NN1C(=O)N[C@@]2(O[C@@H](CO)[C@@H](O)[C@H](O)[C@@H]2O)C1=O, which pKi is on record?
Answer: Its pKi is 3.84.
